Drawing on the NIST ThermoML archive (doi:10.1021/acs.jced.8b00715), this text covers mass density and refractive index for 3 compounds.

The nature of data set [1]: wn = mass fraction of the nth substance listed. As to conditions: 298.15 K, 100 kPa, Liquid, Vibrating tube method.
The nature of data set [2]: refractive index (Na D-line) (dimensionless); wn = mass fraction of the nth substance listed. The following applies: 298.15 K, 100 kPa, Liquid, Standard Abbe refractometry.

Molecules are shown by their SMILES. ± gives the expanded uncertainty stated by the source.

Take `[Cl-].[Na+]` [sodium chloride] + O: in data set [1] (w1 = 0.2645), the mass density (usually mass per unit of volume) is listed as 1198.1 ± 5.6 kg/m3. Also, in data set [2] (w1 = 0.2645), the refractive index (usually the speed of light in vacuum divided by its phase velocity in the sample) is 1.3796 ± 0.0015.

As to `O=B[O-].[Na+]` [sodium metaborate] + O, in data set [1] (w1 = 0.2259), the mass density was determined as 1267.8 ± 1.1 kg/m3. Also, the refractive index in data set [2] (w1 = 0.2259) is recorded as 1.3872 ± 0.0007.

Turning to `O=S(=O)([O-])[O-].[Na+].[Na+]` [sodium sulfate] + O, the mass density in data set [1] (w1 = 0.219) is listed as 1204.85 ± 14 kg/m3. The refractive index in data set [2] (w1 = 0.219) is recorded as 1.3626 ± 0.002.
